# Assay results: patent publication US20140275234A1, “COMPOSITIONS AND METHODS OF USING CRYSTALLINE FORMS OF WORTMANNIN ANALOGS” (ONCOTHYREON INC., priority 2010, published 2014)
# Legend:
# [1] = Solubility Screening Test I and II, HPLC of supernatant; type: physicochemical
# Description: For each solvent, a 100 μL glass crimp-top vial was charged with ˜10 mg of PX-866 and sealed. By syringe, 2 parts of the appropriate solvent was added. If PX-866 dissolved completely, no further work was done. If necessary, more solvent was added to obtain a supernatant. The crimped vial was sonicated for 15 minutes and then centrifuged for 30 seconds. 1.0 μL of the supernatant was removed by syringe and added to a sealed HPLC vial containing 500 μL of acetonitrile. The same saturated solution was then heated for 30 minutes to a set point of 50° C., centrifuged again, and a second HPLC vial was prepared with 1.0 μL of the supernatant at 50° C. In the case of toluene, anisole, o-xylene, propyl acetate, 4-methyl-2-pentanone, and 1-pentanol the room temperature supernatant was transferred to a clean vial and cooled down to 0° C., and then −20° C. For each temperature, an HPLC vial was prepared with 1.0 μL of the supernatant. HPLC samples were run using the method described below and the 254 nm AUC was plotted on a calibration curve to obtain solubility data.
# The samples that crystallized were cooled to 0° C. and subsequently −20° C. to acquire two additional temperature points. Solubility in the aliphatic solvents (propyl acetate, 4-methyl-2-pentanone, and 1-pentanol) decreased drastically with temperature from RT to −20° C.
# [2] = aqueous solutions at either 37° C. or 0° C. at neutral pH; cited from earlier work
# [3] = tested on: phosphatidylinositol-3-kinase (PI-3K); conditions: cited from earlier work
# [4] = as described in WO 2011/153488 and WO 2011/153495; cited from earlier work
# [5] = Formulation and handling studies of amorphous and crystalline forms; type: physicochemical
# Source text: In some embodiments, crystalline forms of Compound 1 and/or analogs thereof show less variability in vitro dissolution profiles as compared to the amorphous form. In some instances, crystalline forms of Compound 1 and/or analogs thereof have better flowability as compared to the amorphous form.
# [6] = Water slurry at ambient temperature; type: physicochemical; conditions: 0.5 g slurry in deionized water
# Description: An initial solvent screen was performed on PX-866 to determine appropriate primary solvents and anti-solvents. Slurries and several precipitations were then performed utilizing several primary solvents and anti-solvents at 50 mg scale. […] The water slurry was then scaled up to 0.5 g and performed at ambient temperature. Since there was a concern for degradation taking place during the slurry at ambient temperature an additional slurry was performed on 0.5 g scale at 10° C. in an attempt to minimize any potential degradation.
# [7] = tested on: pulmonary fibrosis; conditions: as described in WO 2010/118250; cited from earlier work
# [8] = Crystallization study in anisole, PX-866 quantified in supernatant; type: physicochemical
# Description: 53 mg of PX-866 was placed in a 2 mL flat bottom vial and then added ˜940 μL (18 vol.) of anisole at RT. The supernatant was transferred to another vial and cooled down first to 4° C., and then to −20° C. (PX-866 quantified in aliquots of the supernatant at both temperatures). The resulted solids were dried under a stream of nitrogen and further dried under vacuum at RT for 16 hours, then dried under vacuum at 40° C. for 16 hours. PX-866 concentration in supernatant: RT: 9.9 mg/mL; 4° C.: 7.0 mg/mL; −20° C.: 6.2 mg/mL.
# [9] = Initial solvent screen, visual dissolution on adding solvent in 50 μL portions; type: physicochemical; conditions: for Soluble: RT
# Description: This initial solvent screen of PX-866 in 18 solvents was executed to select appropriate solvents for slurry experiments. Approximately 1-2 mg of the material was placed in 2 dram glass vials and the chosen solvents were added in 50 μL portions to determine the minimum amount of solvent needed for dissolution. The vials were shaken at ambient temperature and visually inspected between each addition to determine if complete dissolution had taken place.
# To estimate the ratio of primary solvent to anti-solvent necessary for use in the slurry experiments, heptane or water was then added to the dissolved PX-866 in […], portions until a turbid solution was formed or solids precipitated out. […] The exceptions occurred when MeCN and AcOH were used as the primary solvent as the product oiled out upon anti-solvent addition.
smiles,measurement,setting,value
COC[C@H]1OC(=O)c2coc3c2[C@@]1(C)C1=C(C3=O)[C@@H]2CCC(=O)[C@@]2(C)C[C@H]1OC(C)=O [wortmannin],Solubility,"[1]; in toluene, anisole, and o-xylene",low
same,stability in aqueous solution,[2],subject to decomposition
same,inhibition of PI-3K,[3],irreversibly inhibits
same,inhibition of PI-3 kinase isoforms,"[3]; p110α, p110β, p110δ and p110γ",inhibited equally
"C=CCN(/C=C1/C(=O)O[C@H](COC)[C@@]2(C)C1=C(O)C(=O)C1=C2[C@H](OC(C)=O)C[C@]2(C)C(=O)CC[C@@H]12)CC=C [PX-866, (4S,4aR,5R,6aS,9aR, Z)-1-((diallylamino)methylene)-11-hydroxy-4-(methoxymethyl)-4-a,6a-dimethyl-2,7,10-trioxo-1,2,4,4a,5,6,6a,7,8,9,9a,10-dodecahydroindeno[4,5-h]isochromen-5-yl acetate]",efficacy in human trials,[4],has shown efficacy
same,stability in solution,[5],poor stability
same,purity after water slurry,[6],notable decrease in PX-866 purity
same,Solubility,"[1]; 1,1,1,3,3,3,hexafluoro-2-propanol, RT",>500 @ RT mg/mL
same,Solubility,"[1]; 1,1,1-trichloroethane, RT",>500 @ RT mg/mL
same,Solubility,"[1]; 1,1,2,2-tetrachloroethane, RT",>500 @ RT mg/mL
same,Solubility,"[1]; 1,4-dioxane, RT",>500 @ RT mg/mL
same,Solubility,"[1]; 1-butanol, RT",>500 @ RT mg/mL
same,Solubility,"[1]; 1-octanol, RT",90.6 mg/mL
same,Solubility,"[1]; 1-pentanol, 0° C.",22.8 mg/mL
same,Solubility,"[1]; 1-pentanol, RT",84.4 mg/mL
same,Solubility,"[1]; 1-pentanol, −20° C.",2.4 mg/mL
same,Solubility,"[1]; 2,2,2-trifluoroethanol, RT",>500 @ RT mg/mL
same,Solubility,"[1]; 2,2,4-trimethylpentane, RT",0.37 mg/mL
same,Solubility,"[1]; 2-butanone, RT",>500 @ RT mg/mL
same,Solubility,"[1]; 2-ethoxyethanol, RT",>500 @ RT mg/mL
same,Solubility,"[1]; 4-methyl-2-pentanone, 0° C.",33.4 mg/mL
same,Solubility,"[1]; 4-methyl-2-pentanone, RT",38.4 mg/mL
same,Solubility,"[1]; 4-methyl-2-pentanone, −20° C.",8.5 mg/mL
same,Solubility,"[1]; N-methyl-2-pyrrolidone, RT",>500 @ RT mg/mL
same,Solubility,"[1]; acetone, RT",>500 @ RT mg/mL
same,Solubility,"[1]; anisole, 0° C., supernatant after crystallization",7.0 mg/mL
same,Solubility,"[1]; anisole, RT, supernatant after crystallization",9.9 mg/mL
same,Solubility,"[1]; anisole, −20° C., supernatant after crystallization",6.2 mg/mL
same,Solubility,"[1]; benzyl alcohol, RT",498.0 mg/mL
same,Solubility,"[1]; butyl acetate, RT",>500 @ RT mg/mL
same,Solubility,"[1]; chlorobenzene, RT",15.6 mg/mL
same,Solubility,"[1]; cumene, RT",4.9 mg/mL
same,Solubility,"[1]; di(ethylene glycol), RT",374.8 mg/mL
same,Solubility,"[1]; dibutyl ether, RT",3.1 mg/mL
same,Solubility,"[1]; dichloromethane, RT",>500 @ RT mg/mL
same,Solubility,"[1]; diethyl ether, RT",9.5 mg/mL
same,Solubility,"[1]; diethylamine, RT",>500 @ RT mg/mL
same,Solubility,"[1]; diisopropyl ether, RT",4.2 mg/mL
same,Solubility,"[1]; dimethylformamide, RT",>500 @ RT mg/mL
same,Solubility,"[1]; dimethylsulfoxide, RT",252.5 mg/mL
same,Solubility,"[1]; ethanol, RT",>500 @ RT mg/mL
same,Solubility,"[1]; ethanolamine, RT",>500 @ RT mg/mL
same,Comments: PX-866 in supernatant,"[1]; ethanolamine, RT, solution turned dark orange",no PX-866 detected in
same,Solubility,"[1]; ethyl acetate, RT",>500 @ RT mg/mL
same,Solubility,"[1]; ethyl formate, RT",>500 @ RT mg/mL
same,Solubility,"[1]; ethylene glycol, RT",135.9 mg/mL
same,Solubility,"[1]; glycerol, RT",12.6 mg/mL
same,Solubility,"[1]; heptanes, RT",0.88 mg/mL
same,Solubility,"[1]; hexanes, RT",0.31 mg/mL
same,Solubility,"[1]; isopentanol, RT",228.2 mg/mL
same,Solubility,"[1]; isopropyl acetate, RT",>500 @ RT mg/mL
same,Solubility,"[1]; isopropyl alcohol, RT",>500 @ RT mg/mL
same,Solubility,"[1]; m-xylene, RT",4.5 mg/mL
same,Solubility,"[1]; methanol, RT",>500 @ RT mg/mL
same,Solubility,"[1]; methyl acetate, RT",>500 @ RT mg/mL
same,Solubility,"[1]; methyl t-butyl ether, RT",41.0 mg/mL
same,Solubility,"[1]; methyltetrahydrofuran, RT",>500 @ RT mg/mL
same,Solubility,"[1]; nitromethane, RT",>500 @ RT mg/mL
same,Solubility,"[1]; o-xylene, 0° C., supernatant after crystallization",7.3 mg/mL
same,Solubility,"[1]; o-xylene, RT, supernatant after crystallization",5.5 mg/mL
same,Solubility,"[1]; o-xylene, −20° C., supernatant after crystallization",5.7 mg/mL
same,Solubility,"[1]; p-xylene, RT",1.0 mg/mL
same,Solubility,"[1]; pentane, RT",0.79 mg/mL
same,Solubility,"[1]; perfluorohexane, RT",0.28 mg/mL
same,Solubility,"[1]; propyl acetate, 0° C.",54.8 mg/mL
same,Solubility,"[1]; propyl acetate, RT",84.6 mg/mL
same,Solubility,"[1]; propyl acetate, −20° C.",18.6 mg/mL
same,Solubility,"[1]; sec-butyl ether, RT",1.3 mg/mL
same,Solubility,"[1]; t-Butanol, 30° C.",340.0 mg/mL
same,Solubility,"[1]; tetrahydrofuran, RT",>500 @ RT mg/mL
same,Solubility,"[1]; toluene, 0° C., supernatant after crystallization",2.7 mg/mL
same,Solubility,"[1]; toluene, RT, supernatant after crystallization",5.2 mg/mL
same,Solubility,"[1]; toluene, −20° C., supernatant after crystallization",2.6 mg/mL
same,Solubility,"[1]; water, RT",3.5 mg/mL
same,Comments: decomposition observed by HPLC,"[1]; water, RT, solubility sample","Slightly soluble, significant decomposition"
same,efficacy in pulmonary fibrosis,[7],has shown efficacy
same,PX-866 concentration in supernatant,[8]; 4° C.,7.0 mg/mL
same,PX-866 concentration in supernatant,[8]; RT,9.9 mg/mL
same,PX-866 concentration in supernatant,[8]; −20° C.,6.2 mg/mL
same,Soluble,"[9]; AcOH, vial conc. 48.0 mg/mL",Yes
same,Soluble,"[9]; Acetone, vial conc. 38.0 mg/mL",Yes
same,Soluble,"[9]; Acetone, vial conc. 102.0 mg/mL (Table 2A)",Yes
same,Soluble,"[9]; DCM, vial conc. 48.0 mg/mL",Yes
same,Soluble,"[9]; DMF, vial conc. 56.0 mg/mL",Yes
same,Soluble,"[9]; Dioxane, vial conc. 38.0 mg/mL",Yes
same,Soluble,"[9]; EtOAc, vial conc. 38.0 mg/mL",Yes
same,Soluble,"[9]; EtOH, vial conc. 56.0 mg/mL",Yes
same,Soluble,"[9]; EtOH, vial conc. 164.0 mg/mL (Table 2A)",Yes
same,Soluble,"[9]; Heptane, vial conc. 0.4 mg/mL",No
same,Soluble,"[9]; IPA, vial conc. 28.0 mg/mL",Yes
same,Soluble,"[9]; IPA, vial conc. 106.0 mg/mL (Table 2A)",Yes
same,Soluble,"[9]; IPAc, vial conc. 32.0 mg/mL",Yes
same,Soluble,"[9]; MECN, vial conc. 100.0 mg/mL (Table 2A)",Yes
same,Soluble,"[9]; MEK, vial conc. 56.0 mg/mL",Yes
same,Soluble,"[9]; MTBE, vial conc. 13.0 mg/mL",Yes
same,Soluble,"[9]; MeCN, vial conc. 16.0 mg/mL",Yes
same,solubility at ambient temperature,"[9]; MeCN, dioxane, acetone, MTBE, EtOH, EtOAc, IPAc, IPA, THF, MEK, DMF, AcOH, MeOH, toluene, DCM",good solubility
same,Soluble,"[9]; MeOH, vial conc. 52.0 mg/mL",Yes
same,Soluble,"[9]; MeOH, vial conc. 150.0 mg/mL (Table 2A)",Yes
same,Soluble,"[9]; THF, vial conc. 52.0 mg/mL",Yes
same,Soluble,"[9]; Toluene, vial conc. 56.0 mg/mL",Yes
same,Soluble,"[9]; Water, vial conc. 0.3 mg/mL",Partially
same,Soluble,"[9]; c-Hexane, vial conc. 0.3 mg/mL",No
same,Solubility,"[9]; c-hexane, heptane, and water",limited or no solubility
same,inhibition of PI-3K,[3],irreversibly inhibits
